Data set [1] is described as follows: acute toxicity, intravenous, male mice (LD50, Litchfield and Wilcoxon). As to conditions: mouse, in vivo; for LD50 at 168 h: i.v., 10 animals per group, 7 days observation, 95% confidence limit in brackets. As for the experimental part:
A toxicological study was also carried out on the compounds according to the invention.
More particularly, the acute toxicity was studied by introduction into the veins of male mice (10 animals per group), E.O.P.S. of the Swiss strain (bred by EVIC-CEBA).
The compounds to be tested were rendered soluble in physiological serum at variable concentrations and the solution obtained injected into the veins in an amount of 10 ml per kg of body weight. Administration was carried out in 20 seconds.
The animals were kept under clinical observation for three hours after administration and then daily for 7 days.
The lethal doses 50 (LD50) were calculated using the method of Litchfield and Wilcoxon (J. Pharmacol. Exp. Therap., 96-99, 1949) on the basis of the different mortality rates observed.

Data set [2] has as its system isolated left auricle of the Guinea pig. Nature of the data set: inotropic activity: contractile force of isolated, electrically stimulated left auricle (Lumley, Broadley and Levy technique; cumulative method of Van Rossum). Conditions: for EC50 / Emax: Cavia porcellus; for EC50 / Inotropic action pD2: 36° C., cumulative concentrations, minimum of three dose-action curves; for EC50: read-out: Inotropic action pD2 (converted); for Emax / Inotropic action α (intrinsic activity): relative to dopamine; for Emax: α=1, read-out: Inotropic action α (intrinsic activity); for Inotropic action α (intrinsic activity): α=1. The source says:
The technique used is that of P. Lumley, K. J. Broadley and G. P. Levy described in Cardiovascular Research, 11, 17-25, 1977. This technique is used to study the β1 cardiac inotrope function; the β1 receptors being cardiac in the Guinea pig as in man, the results obtained with the Guinea pig are applicable to man.
Guinea pigs of either sex are killed by a knock and bled; the left auricle is rapidly removed and immediately immersed in a Kreibs-Henseleit solution, the temperature being thermostatically maintained at 36° C. and aerated by a mixture of O2 and CO2 (95% and 5%). Two linen threads are attached to its ends: one is used to make contact between the auricle and a silver negative stimulating electrode, the other serves to connect the preparation to an isometric myograph (F-50 NARCO) and then to a recording system (Physiograph type M-K III NARCO).
Some 60 minutes are needed to ensure stability of the preparation.
Throughout the test, the auricle is activated electrically by a neurostimulator (Equipment Industriel II): voltage: supramaximum--width: 5 milli/sec.--frequency: 90 to 120 beats per minute.
Agonists, reference substances or compounds according to the invention, are added to the nutrient medium using the cumulative method of Van Rossum (Arch. Inter. Pharmacodyn., 143, 299-330, 1963). After adding each given amount of agonists, three minutes are allowed to pass before a further given amount of the product under study is added according to the method described above. The response of the organ to each concentration was assessed by the resultant increase in contractile force measured in gram. This was expressed as a percentage of the maximum increase (100%) for each compound and a dose-action curve was plotted. The agonist effect was quantified by calculating pD2 (E. J. Ariens and J. M. Van Rossum., Arch. Intern. Pharmacodyn. CX, No. 2, 2, 19 and Arch. Inter. Pharmacodyn. 143, 299-330, 1963) which characterizes the affinity of the compound under test for the receptors.
The agonist effect was also characterized by the intrinsic activity […] which defines the relative power of the agonist with respect to a standard which, in the tests, was dopamine, the intrinsic activity of which is taken arbitrarily to be α=1.
The results obtained are shown in table II below, it being assumed that:
the higher the value of pD2 and the more marked the affinity of the compound under test for the receivers, and
the higher the value of α, the better is the intrinsic activity.

For orientation: LD50 means the dose expected to kill half of the subjects tested. Low readings indicate a more toxic substance, high ones a less toxic substance. Broadly, the mortality is the share of the test organisms that died. A lower mortality goes with a weak lethal effect.

In data set [1], `C1CC1CN1CCN(CC2CC2)CC1` [3a] showed a 50% lethal dose (LD50) at 168 h of 110 mg/kg. Besides, in data set [2], the EC50 is 30.2 µM and the Emax is 69%.

Regarding `CCOC(=O)N1CCN(CC2CC2)CC1` [6a], in data set [1], the LD50 at 168 h is 41 mg/kg. Moreover, in data set [2], the EC50 was 1260 µM and the Emax is 58%.

On to `CN1CCN(CC2CC2)CC1` [Code No. 2], for which the LD50 at 168 h in data set [1] came to 320 mg/kg. Also, in data set [2], the EC50 was 112 µM and the Emax is 48%.

Turning to `CCCCCN1CCN(CC2CC2)CC1` [Code No. 4], the LD50 at 168 h in data set [1] came to 37.5 mg/kg.

Regarding `OCCN1CCN(CC2CC2)CC1` [Code No. 5], in data set [1], the LD50 at 168 h worked out at 460 mg/kg.

For `CC(CN1CCN(CC2CC2)CC1)C(=O)O` (centres unmarked) [compound 7], the median lethal dose (LD50) at 168 h in data set [1] is 190 mg/kg.

Take `CC(CN1CCN(CC2CC2)CC1)C(=O)NCc1ccccc1` (centres unmarked) [compound 8]: in data set [1], the LD50 at 168 h is 245 mg/kg. In addition, in data set [2], the EC50 is 53.7 µM and the Emax stood at 57%.

For the compound `COc1ccccc1N1CCN(CC2CC2)CC1` [compound 10], the LD50 at 168 h in data set [1] was determined as 34 mg/kg.

Compound `FC(F)(F)c1cccc(N2CCN(CC3CC3)CC2)c1` [compound 11] registered an LD50 at 168 h in data set [1] of 30 mg/kg.

Take `CC(=O)c1ccc(N2CCN(CC3CC3)CC2)cc1` [compound 12]: the LD50 at 168 h in data set [1] was 90 mg/kg. In data set [2], the EC50 was 55 µM and the Emax amounted to 82%.

Take `CC1CN(CC2CC2)CCN1CC1CC1` (centres unmarked) [compound 13]: the LD50 at 168 h in data set [1] is 104 mg/kg. Further, in data set [2], the EC50 is 3.63 µM and the Emax turned out to be 36%.

`c1ccc(CN2CCN(CC3CC3)CC2)cc1` [compound 14] gave an LD50 at 168 h in data set [1] of 46 mg/kg.

`O=C(c1ccc2c(c1)OCO2)N1CCN(CC2CC2)CC1` [compound 15] gave an LD50 at 168 h in data set [1] of 155 mg/kg. Besides, in data set [2], the EC50 is 363 µM and the Emax worked out at 88%.

Compound `COc1cc(C(=O)N2CCN(CC3CC3)CC2)cc(OC)c1OC` [compound 16] displayed a mortality at 168 h in data set [1] (100 mg/kg i.v.) of 30%. Besides, in data set [2], the “Inotropic action pD2” value amounted to 5.06 and the “Inotropic action α (intrinsic activity)” value was found to be 0.52.

For `COc1cc(C(=O)N2CCN(CC3CC3)CC2)cc(OC)c1OC` [compound 17], the LD50 at 168 h in data set [1] was determined as 245 mg/kg. In data set [2], the “Inotropic action pD2” value is recorded as 3.50 and the “Inotropic action α (intrinsic activity)” value was determined as 0.19.

Take `CCOC(=O)Oc1c(OC)cc(C(=O)N2CCN(CC3CC3)CC2)cc1OC` [compound 18]: the LD50 at 168 h in data set [1] was determined as 225 mg/kg.

With `O=C(C=Cc1cccc(C(F)(F)F)c1)N1CCN(CC2CC2)CC1` [compound 19], the LD50 at 168 h in data set [1] was 95 mg/kg.

As to `COc1cc(C=CC(=O)N2CCN(CC3CC3)CC2)cc(OC)c1OC` [compound 20], in data set [1], the LD50 at 168 h turned out to be 52 mg/kg. Further, in data set [2], the EC50 was 776 µM and the Emax was found to be 49%.

As for `COc1ccc(OCC(=O)N2CCN(CC3CC3)CC2)cc1` [compound 21], the LD50 at 168 h in data set [1] is 115 mg/kg. Further, in data set [2], the EC50 was 22.4 µM and the Emax amounted to 69%.

On to `O=C(COc1ccc(F)cc1)N1CCN(CC2CC2)CC1` [compound 22], for which the LD50 at 168 h in data set [1] was found to be 100 mg/kg. Moreover, in data set [2], the EC50 was 17.8 µM and the Emax stood at 48%.

Consider `CC1CN(CC2CC2)CCN1` (centres unmarked) [compound 23], for which the LD50 at 168 h in data set [1] amounted to 280 mg/kg. Further, in data set [2], the EC50 was 178 µM and the Emax turned out to be 75%.

In data set [1], `CC1CN(CC2CC2)CCN1CCN(C)C` (centres unmarked) [compound 24] showed an LD50 at 168 h of 200 mg/kg.

For `CCN(CC)CCN1CCN(CC2CC2)CC1C` (centres unmarked) [compound 25], the LD50 at 168 h in data set [1] was 150 mg/kg.

For `CC1CN(CC2CC2)CCN1CCN1CCCC1` (centres unmarked) [compound 26], in data set [1], the LD50 at 168 h worked out at 158 mg/kg. In addition, in data set [2], the EC50 was 14.1 µM and the Emax was 32%.

The compound `CC1CN(CC2CC2)CCN1CCN1CCCCC1` (centres unmarked) [compound 27] gave an LD50 at 168 h in data set [1] of 155 mg/kg. Further, in data set [2], the EC50 is 47.9 µM and the Emax was determined as 40%.

Turning to `CC1CN(CC2CC2)CCN1CCN1CCCCCC1` (centres unmarked) [compound 28], in data set [1], the LD50 at 168 h stood at 95 mg/kg.

In the case of `CC1CN(CC2CC2)CCN1CCN1CCOCC1` (centres unmarked) [compound 29], the LD50 at 168 h in data set [1] was 250 mg/kg.

`CCN(CC)CCCN1CCN(CC2CC2)CC1C` (centres unmarked) [compound 30] had an LD50 at 168 h in data set [1] of 135 mg/kg.

As for `CC1CN(CC2CC2)CCN1CCCN1CCCC1` (centres unmarked) [compound 31], the LD50 at 168 h in data set [1] came out at 165 mg/kg. Also, in data set [2], the EC50 is 26.9 µM and the Emax came to 25%.

In data set [1], `CC1CN(CC2CC2)CCN1CCCN1CCCCC1` (centres unmarked) [compound 32] returned an LD50 at 168 h of 162 mg/kg. For the same compound, in data set [2], the EC50 is 0.525 µM and the Emax was found to be 12%.

Take `CC1CN(CC2CC2)CCN1CCCN1CCCCCC1` (centres unmarked) [compound 33]: in data set [1], the LD50 at 168 h was 130 mg/kg.

Regarding `CC1CN(CC2CC2)CCN1CCCN1CCOCC1` (centres unmarked) [compound 34], the LD50 at 168 h in data set [1] worked out at 215 mg/kg. In data set [2], the EC50 was 5.13 µM and the Emax came out at 24%.

On to `CC1CN(CC2CC2)CCN1Cc1ccc2c(c1)OCO2` (centres unmarked) [compound 35], for which the LD50 at 168 h in data set [1] amounted to 77 mg/kg. Besides, in data set [2], the EC50 is 5.25 µM and the Emax was found to be 17%.

With `CC1CN(CC2CC2)CCN1Cc1ccc2c(c1Cl)OCO2` (centres unmarked) [compound 36], the LD50 at 168 h in data set [1] amounted to 65 mg/kg.

With `CC1CN(CC2CC2)CCN1Cc1csc2ccccc12` (centres unmarked) [compound 37], in data set [1], the LD50 at 168 h amounted to 40 mg/kg.

In data set [1], `COc1cc(C(=O)N2CCN(CC3CC3)CC2C)cc(OC)c1OC` (centres unmarked) [compound 38] gave an LD50 at 168 h of 130 mg/kg.

In the case of `COc1cc(C(=O)N2CCN(CC3CC3)CC2C)cc(OC)c1OC(C)=O` (centres unmarked) [compound 39], in data set [1], the LD50 at 168 h is 225 mg/kg. In data set [2], the EC50 is 25.7 µM and the Emax came to 69%.

For the origin of these results see patent US4474783A, “Cyclopropylmethyl piperazines, the process for preparing the same and their use in therapeutics” (Innothera, priority 1980, dated 1984).
